Laboratory results as given in the supplement of paper PMC10307832.

Experiments:
Experiment in all cases: relative viability (nuclei count vs DMSO), 5 days (fraction); higher = more cells survive
Irinotecan + Pictilisib = compound: CCc1c2c(nc3ccc(OC(=O)N4CCC(N5CCCCC5)CC4)cc13)-c1cc3c(c(=O)n1C2)COC(=O)[C@]3(O)CC [Irinotecan] + CS(=O)(=O)N1CCN(Cc2cc3nc(-c4cccc5[nH]ncc45)nc(N4CCOCC4)c3s2)CC1 [Pictilisib] (partner 1 µM)
Method in brief: (§1)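 Values are medians from duplicate plates. Each reflects relative viability, defined as the nuclei count of treated wells over that of vehicle wells. Lung cancer cell lines in 1536-well plates were pin-tool dosed one day after seeding with one drug alone or with a fixed anchor-drug dose plus five library-drug doses (not always all listed) in √10 steps, then fixed, stained and imaged at 4× after 5 days.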

MK-8033 + Pemetrexed = compound: Cn1cc(-c2cnc3ccc4ccc(CS(=O)(=O)NCc5ccccn5)cc4c(=O)c3c2)cn1 [MK-8033] + Nc1nc2[nH]cc(CCc3ccc(C(=O)N[C@@H](CCC(=O)O)C(=O)O)cc3)c2c(=O)[nH]1 [Pemetrexed] (partner 0.2 µM)
Method in brief: as §1

Irinotecan + Linsitinib = compound: CCc1c2c(nc3ccc(OC(=O)N4CCC(N5CCCCC5)CC4)cc13)-c1cc3c(c(=O)n1C2)COC(=O)[C@]3(O)CC [Irinotecan] + C[C@]1(O)C[C@@H](c2nc(-c3ccc4ccc(-c5ccccc5)nc4c3)c3c(N)nccn32)C1 [Linsitinib] (partner 1 µM)
Method in brief: as §1

MK-8033 + Palbociclib = compound: Cn1cc(-c2cnc3ccc4ccc(CS(=O)(=O)NCc5ccccn5)cc4c(=O)c3c2)cn1 [MK-8033] + CC(=O)c1c(C)c2cnc(Nc3ccc(N4CCNCC4)cn3)nc2n(C2CCCC2)c1=O [Palbociclib] (partner 0.5 µM)
Method in brief: as §1

Cell Line | relative viability (Irinotecan + Pictilisib; first compound 0.6325 µM) | relative viability (Irinotecan + Pictilisib; first compound 2 µM) | relative viability (Irinotecan + Pictilisib; first compound 6.325 µM) | relative viability (Irinotecan + Pictilisib; first compound 20 µM) | relative viability (MK-8033 + Pemetrexed; first compound 0.02 µM) | relative viability (MK-8033 + Pemetrexed; first compound 0.06325 µM) | relative viability (MK-8033 + Pemetrexed; first compound 0.2 µM) | relative viability (MK-8033 + Pemetrexed; first compound 0.6325 µM) | relative viability (MK-8033 + Pemetrexed; first compound 2 µM) | relative viability (Irinotecan + Linsitinib; first compound 0.6325 µM) | relative viability (Irinotecan + Linsitinib; first compound 2 µM) | relative viability (Irinotecan + Linsitinib; first compound 6.325 µM) | relative viability (Irinotecan + Linsitinib; first compound 20 µM) | relative viability (MK-8033 + Palbociclib; first compound 0.02 µM) | relative viability (MK-8033 + Palbociclib; first compound 0.06325 µM) | relative viability (MK-8033 + Palbociclib; first compound 0.2 µM) | relative viability (MK-8033 + Palbociclib; first compound 0.6325 µM) | relative viability (MK-8033 + Palbociclib; first compound 2 µM)
NCI-H838 | 0.472 | 0.403 | 0.279 | 0.214 | 0.249 | 0.246 | 0.227 | 0.27 | 0.22 | 1.17 | 0.849 | 0.372 | 0.228 | 0.213 | 0.207 | 0.217 | 0.213 | 0.22
NCI-H1755 | 0.249 | 0.382 | 0.224 | 0.361 | 0.481 | 0.394 | 0.383 | 0.336 | 0.375 | 0.927 | 0.396 | 0.303 | 0.366 | 0.452 | 0.452 | 0.413 | 0.464 | 0.417
NCI-H1666 | 0.559 | 0.338 | 0.409 | 0.311 | 0.784 | 0.775 | 0.915 | 0.788 | 0.772 | 0.71 | 0.414 | 0.403 | 0.384 | 0.684 | 0.627 | 0.523 | 0.707 | 0.598
NCI-H2085 | 0.453 | 0.403 | 0.313 | 0.307 | 0.722 | 0.767 | 0.862 | 0.874 | 0.875 | 0.584 | 0.672 | 0.381 | 0.497 | 0.468 | 0.479 | 0.499 | 0.484 | 0.474
COR-L23 | 0.338 | 0.363 | 0.228 | 0.0867 | 0.2 | 0.197 | 0.219 | 0.212 | 0.197 | 0.392 | 0.284 | 0.203 | 0.123 | 0.239 | 0.29 | 0.27 | 0.304 | 0.326
NCI-H647 | – | 0.65 | 0.219 | 0.208 | 0.199 | 0.166 | 0.165 | 0.185 | 0.172 | 1.03 | 0.329 | 0.178 | 0.15 | 0.365 | 0.338 | 0.351 | 0.404 | 0.43
NCI-H1793 | – | 0.259 | 0.189 | 0.29 | 0.682 | – | 0.725 | 0.739 | 0.729 | – | 0.609 | 0.272 | 0.341 | 0.263 | – | 0.274 | 0.288 | 0.291
LCLC-97TM1 | 0.12 | 0.219 | 0.167 | 0.279 | 0.165 | 0.134 | – | 0.201 | 0.173 | 0.118 | 0.189 | 0.168 | 0.169 | 0.243 | 0.221 | – | 0.232 | 0.216
HOP-62 | 0.239 | 0.261 | 0.13 | 0.269 | 0.358 | 0.415 | 0.326 | 0.3 | 0.32 | 0.146 | 0.158 | 0.138 | 0.203 | 0.469 | 0.41 | 0.425 | 0.496 | 0.446
